Experimental data as given in ChEMBL document CHEMBL1811831, “Minutissamides A-D, antiproliferative cyclic decapeptides from the cultured cyanobacterium Anabaena minutissima” (J Nat Prod, 2011).

System: HT-29
Test: Antiproliferative activity against human HT-29 cells
Assay type: functional, cell-based

IC50	Compound
20 µM	C/C=C1/NC(=O)[C@H](CC(N)=O)NC(=O)/C(=C\C)NC(=O)[C@H](C(C)C)NC(=O)[C@H](O)[C@@H]([C@@H](C)CCCCCCCCCl)NC(=O)[C@@H]2CCCN2C(=O)[C@H](CC(N)=O)N(C)C(=O)[C@H]([C@@H](C)O)NC(=O)[C@@H](C)NC(=O)[C@H](CC(N)=O)NC1=O [MINUTISSAMIDE B]
2 µM	C/C=C1/NC(=O)[C@H](CC(N)=O)NC(=O)/C(=C\C)NC(=O)[C@H](C(C)C)NC(=O)[C@H](O)[C@@H]([C@@H](C)CCCCCCCC)NC(=O)[C@@H]2CCCN2C(=O)[C@H](CC(N)=O)N(C)C(=O)[C@H]([C@@H](C)O)NC(=O)[C@@H](C)NC(=O)[C@H](CC(N)=O)NC1=O [MINUTISSAMIDE A]
